# From PubChem BioAssay (NCI)
#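 GI50 = concentration required for 50% inhibition of growth. TGI denotes the concentration required for complete inhibition of growth.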
# Assays:
# Assay in all cases: NCI-60 cell line screen, 384-well format
# T-47D breast = test system: T-47D breast
# MCF7 breast = test system: MCF7 breast
# OVCAR-4 ovarian = test system: OVCAR-4 ovarian
# SNB-19 CNS = test system: SNB-19 CNS
# CCRF-CEM leukemia = test system: CCRF-CEM leukemia
# M14 melanoma = test system: M14 melanoma
# SF-268 CNS = test system: SF-268 CNS
# RXF 393 renal = test system: RXF 393 renal
# SF-539 CNS = test system: SF-539 CNS
# SNB-75 CNS = test system: SNB-75 CNS
# MDA-MB-468 breast = test system: MDA-MB-468 breast
# SW-620 colon = test system: SW-620 colon
# IGROV1 ovarian = test system: IGROV1 ovarian
# TK-10 renal = test system: TK-10 renal
# NCI-H322M lung = test system: NCI-H322M lung
# NCI-H522 lung = test system: NCI-H522 lung
# U251 glioblastoma = test system: U251 glioblastoma
# SK-MEL-28 melanoma = test system: SK-MEL-28 melanoma
# NCI/ADR-RES ovarian = test system: NCI/ADR-RES ovarian
# MALME-3M melanoma = test system: MALME-3M melanoma
# HCC-2998 colon = test system: HCC-2998 colon
# SF-295 CNS = test system: SF-295 CNS
# HL-60(TB) leukemia = test system: HL-60(TB) leukemia
# HOP-92 NSCLC = test system: HOP-92 NSCLC
# PC-3 prostate = test system: PC-3 prostate
# SK-OV-3 ovarian = test system: SK-OV-3 ovarian
# HS 578T breast = test system: HS 578T breast
# COLO 205 colon = test system: COLO 205 colon
# DU-145 prostate = test system: DU-145 prostate
# HCT-15 colon = test system: HCT-15 colon
# 786-0 renal = test system: 786-0 renal
# SR leukemia = test system: SR leukemia
# UACC-257 melanoma = test system: UACC-257 melanoma
# MDA-MB-231 breast = test system: MDA-MB-231 breast
# SN12C renal = test system: SN12C renal
# OVCAR-8 ovarian = test system: OVCAR-8 ovarian
# MDA-MB-435 melanoma = test system: MDA-MB-435 melanoma
# K-562 leukemia = test system: K-562 leukemia
# A498 renal = test system: A498 renal
# CAKI-1 renal = test system: CAKI-1 renal
# MOLT-4 leukemia = test system: MOLT-4 leukemia
# OVCAR-5 ovarian = test system: OVCAR-5 ovarian
# NCI-H226 lung = test system: NCI-H226 lung
# NCI-H23 lung = test system: NCI-H23 lung
# KM12 colon = test system: KM12 colon
# UO-31 renal = test system: UO-31 renal
# SK-MEL-5 melanoma = test system: SK-MEL-5 melanoma
# BT-549 breast = test system: BT-549 breast
# RPMI-8226 leukemia = test system: RPMI-8226 leukemia
# HCT-116 colon = test system: HCT-116 colon
# A549 NSCLC = test system: A549 NSCLC
# NCI-H460 NSCLC = test system: NCI-H460 NSCLC
# HOP-62 NSCLC = test system: HOP-62 NSCLC
# LOX IMVI melanoma = test system: LOX IMVI melanoma
# EKVX NSCLC = test system: EKVX NSCLC
# OVCAR-3 ovarian = test system: OVCAR-3 ovarian
# HT29 colon = test system: HT29 colon
# ACHN renal = test system: ACHN renal
compound,measurement,setting,value
CC[C@@]1(c2ccccc2)C2=C(CC(C)(C)CC2=O)Nc2[nH]ncc21,GI50,T-47D breast,> 100 µM
same,TGI,T-47D breast,> 100 µM
same,GI50,MCF7 breast,> 100 µM
same,TGI,MCF7 breast,> 100 µM
same,GI50,OVCAR-4 ovarian,> 100 µM
same,TGI,OVCAR-4 ovarian,> 100 µM
same,GI50,SNB-19 CNS,> 100 µM
same,TGI,SNB-19 CNS,> 100 µM
same,GI50,CCRF-CEM leukemia,> 100 µM
same,TGI,CCRF-CEM leukemia,> 100 µM
same,GI50,M14 melanoma,56.9 µM
same,TGI,M14 melanoma,> 100 µM
same,GI50,SF-268 CNS,> 100 µM
same,TGI,SF-268 CNS,> 100 µM
same,GI50,RXF 393 renal,66.3 µM
same,TGI,RXF 393 renal,> 100 µM
same,GI50,SF-539 CNS,> 100 µM
same,TGI,SF-539 CNS,> 100 µM
same,GI50,SNB-75 CNS,> 100 µM
same,TGI,SNB-75 CNS,> 100 µM
same,GI50,MDA-MB-468 breast,30.8 µM
same,TGI,MDA-MB-468 breast,> 100 µM
same,GI50,SW-620 colon,> 100 µM
same,TGI,SW-620 colon,> 100 µM
same,GI50,IGROV1 ovarian,> 100 µM
same,TGI,IGROV1 ovarian,> 100 µM
same,GI50,TK-10 renal,45.2 µM
same,TGI,TK-10 renal,> 100 µM
same,GI50,NCI-H322M lung,> 100 µM
same,TGI,NCI-H322M lung,> 100 µM
same,GI50,NCI-H522 lung,> 100 µM
same,TGI,NCI-H522 lung,> 100 µM
same,GI50,U251 glioblastoma,96.6 µM
same,TGI,U251 glioblastoma,> 100 µM
same,GI50,SK-MEL-28 melanoma,> 100 µM
same,TGI,SK-MEL-28 melanoma,> 100 µM
same,GI50,NCI/ADR-RES ovarian,> 100 µM
same,TGI,NCI/ADR-RES ovarian,> 100 µM
same,GI50,MALME-3M melanoma,> 100 µM
same,TGI,MALME-3M melanoma,> 100 µM
same,GI50,HCC-2998 colon,> 100 µM
same,TGI,HCC-2998 colon,> 100 µM
same,GI50,SF-295 CNS,50.9 µM
same,TGI,SF-295 CNS,> 100 µM
same,GI50,HL-60(TB) leukemia,46.3 µM
same,TGI,HL-60(TB) leukemia,> 100 µM
same,GI50,HOP-92 NSCLC,> 100 µM
same,TGI,HOP-92 NSCLC,> 100 µM
same,GI50,PC-3 prostate,> 100 µM
same,TGI,PC-3 prostate,> 100 µM
same,GI50,SK-OV-3 ovarian,> 100 µM
same,TGI,SK-OV-3 ovarian,> 100 µM
same,GI50,HS 578T breast,64.6 µM
same,TGI,HS 578T breast,> 100 µM
same,GI50,COLO 205 colon,> 100 µM
same,TGI,COLO 205 colon,> 100 µM
same,GI50,DU-145 prostate,> 100 µM
same,TGI,DU-145 prostate,> 100 µM
same,GI50,HCT-15 colon,60 µM
same,TGI,HCT-15 colon,> 100 µM
same,GI50,786-0 renal,> 100 µM
same,TGI,786-0 renal,> 100 µM
same,GI50,SR leukemia,38.8 µM
same,TGI,SR leukemia,> 100 µM
same,GI50,UACC-257 melanoma,> 100 µM
same,TGI,UACC-257 melanoma,> 100 µM
same,GI50,MDA-MB-231 breast,> 100 µM
same,TGI,MDA-MB-231 breast,> 100 µM
same,GI50,SN12C renal,> 100 µM
same,TGI,SN12C renal,> 100 µM
same,GI50,OVCAR-8 ovarian,> 100 µM
same,TGI,OVCAR-8 ovarian,> 100 µM
same,GI50,MDA-MB-435 melanoma,> 100 µM
same,TGI,MDA-MB-435 melanoma,> 100 µM
same,GI50,K-562 leukemia,> 100 µM
same,TGI,K-562 leukemia,> 100 µM
same,GI50,A498 renal,98.6 µM
same,TGI,A498 renal,> 100 µM
same,GI50,CAKI-1 renal,> 100 µM
same,TGI,CAKI-1 renal,> 100 µM
same,GI50,MOLT-4 leukemia,> 100 µM
same,TGI,MOLT-4 leukemia,> 100 µM
same,GI50,OVCAR-5 ovarian,> 100 µM
same,TGI,OVCAR-5 ovarian,> 100 µM
same,GI50,NCI-H226 lung,> 100 µM
same,TGI,NCI-H226 lung,> 100 µM
same,GI50,NCI-H23 lung,> 100 µM
same,TGI,NCI-H23 lung,> 100 µM
same,GI50,KM12 colon,> 100 µM
same,TGI,KM12 colon,> 100 µM
same,GI50,UO-31 renal,47.1 µM
same,TGI,UO-31 renal,> 100 µM
same,GI50,SK-MEL-5 melanoma,> 100 µM
same,TGI,SK-MEL-5 melanoma,> 100 µM
same,GI50,BT-549 breast,> 100 µM
same,TGI,BT-549 breast,> 100 µM
same,GI50,RPMI-8226 leukemia,54.7 µM
same,TGI,RPMI-8226 leukemia,> 100 µM
same,GI50,HCT-116 colon,66.9 µM
same,TGI,HCT-116 colon,> 100 µM
same,GI50,A549 NSCLC,> 100 µM
same,TGI,A549 NSCLC,> 100 µM
same,GI50,NCI-H460 NSCLC,35 µM
same,TGI,NCI-H460 NSCLC,> 100 µM
same,GI50,HOP-62 NSCLC,> 100 µM
same,TGI,HOP-62 NSCLC,> 100 µM
same,GI50,LOX IMVI melanoma,> 100 µM
same,TGI,LOX IMVI melanoma,> 100 µM
same,GI50,EKVX NSCLC,> 100 µM
same,TGI,EKVX NSCLC,> 100 µM
same,GI50,OVCAR-3 ovarian,> 100 µM
same,TGI,OVCAR-3 ovarian,> 100 µM
same,GI50,HT29 colon,> 100 µM
same,TGI,HT29 colon,> 100 µM
same,GI50,ACHN renal,> 100 µM
same,TGI,ACHN renal,> 100 µM
